# Test results as given in BindingDB's records for doi:10.1021/acs.jmedchem.1c00920 (Astrazeneca, 2021).
# Target: Tyrosine-protein kinase Mer (Homo sapiens) (UniProt Q12866)
# Experiment: Inhibition of FLAG-tagged MER (unknown origin) transfected in Cos-7cells assessed as phosphorylation level incubated for 1 hr by ELISA
# Tyrosine-protein kinase Mer (Homo sapiens), sequence (Q12866 whole entry, looked up): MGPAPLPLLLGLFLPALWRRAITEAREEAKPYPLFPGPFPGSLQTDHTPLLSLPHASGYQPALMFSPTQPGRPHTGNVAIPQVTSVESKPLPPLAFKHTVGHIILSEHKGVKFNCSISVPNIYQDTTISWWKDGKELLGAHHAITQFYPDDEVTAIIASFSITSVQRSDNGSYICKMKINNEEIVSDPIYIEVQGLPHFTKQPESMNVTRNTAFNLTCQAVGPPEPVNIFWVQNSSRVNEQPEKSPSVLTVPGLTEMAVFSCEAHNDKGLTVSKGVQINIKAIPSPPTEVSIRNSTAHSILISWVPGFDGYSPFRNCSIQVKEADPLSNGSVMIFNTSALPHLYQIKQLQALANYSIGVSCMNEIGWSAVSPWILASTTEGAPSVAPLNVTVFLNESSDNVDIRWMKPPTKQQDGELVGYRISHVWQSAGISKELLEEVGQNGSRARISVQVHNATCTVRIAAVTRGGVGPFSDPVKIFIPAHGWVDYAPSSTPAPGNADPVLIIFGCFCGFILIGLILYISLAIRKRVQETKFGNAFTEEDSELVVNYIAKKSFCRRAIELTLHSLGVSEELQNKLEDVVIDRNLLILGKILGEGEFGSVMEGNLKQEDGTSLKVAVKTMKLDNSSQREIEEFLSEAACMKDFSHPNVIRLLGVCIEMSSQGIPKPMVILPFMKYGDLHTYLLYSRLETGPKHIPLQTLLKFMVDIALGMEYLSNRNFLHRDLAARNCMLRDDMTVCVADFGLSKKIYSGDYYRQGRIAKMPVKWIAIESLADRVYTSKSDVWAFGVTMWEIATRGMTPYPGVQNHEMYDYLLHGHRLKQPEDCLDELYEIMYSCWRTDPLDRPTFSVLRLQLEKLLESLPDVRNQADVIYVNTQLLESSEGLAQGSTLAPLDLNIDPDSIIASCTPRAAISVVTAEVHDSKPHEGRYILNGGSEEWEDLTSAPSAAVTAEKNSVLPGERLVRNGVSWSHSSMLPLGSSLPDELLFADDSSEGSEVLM
row,SMILES,IC50 [nM]
1,Cc1nn(C)c(C)c1-c1ccc(-c2nnc(N(C)Cc3ccc4nccn4c3)o2)cc1,200
2,Cc1cc(-c2c(C)nn(C)c2C)ccc1-c1nnc(N(C)Cc2ccc3nccn3c2)o1,32
3,Cc1cc(-c2c(C)nn(C)c2C)cnc1-c1nnc(N(C)Cc2ccc3nccn3c2)o1,794
4,Cc1cc(-c2c(C)n[nH]c2C)ccc1-c1nnc(N(C)Cc2ccc3nccn3c2)o1,2510
5,Cc1cc(-c2cnn(C)c2C)ccc1-c1nnc(N(C)Cc2ccc3nccn3c2)o1,79
6,Cc1cc(-c2c(C)nc(C)n2C)ccc1-c1nnc(N(C)Cc2ccc3nccn3c2)o1,501
7,Cc1cc(-c2c(C)nn(C)c2C)ccc1-c1nnc(N(C)Cc2ccc3ncc(-c4ccccc4)n3c2)o1,32
8,Cc1cc(-c2c(C)nn(C)c2C)ccc1-c1nnc(N(C)Cc2ccc3ncc(-c4cnn(C)c4)n3c2)o1,13
9,Cc1cc(-c2c(C)nn(C)c2C)ccc1-c1nnc(N(C)Cc2ccc3ncc(-c4cnn(CCN(C)C)c4)n3c2)o1,20
10,Cc1cc(-c2c(C)nn(C)c2C)cnc1-c1nnc(N(C)Cc2ccc3ncc(-c4cnn(CCN(C)C)c4)n3c2)o1,200
11,Cc1cc(-c2c(C)nn(C)c2C)cnc1-c1nnc(N(C)Cc2ccc3ncc(-c4cccc(CN(C)C)c4)n3c2)o1,32
12,Cc1cc(-c2c(C)nn(C)c2C)cnc1-c1nnc(N(C)Cc2ccc3ncc(-c4ccc(CN(C)C)cn4)n3c2)o1,13
13,"CN1CCN(Cc2ccc(-c3ccc(CO[C@H]4CCC[C@@H]4NC(=O)c4cc(-c5cnn(C)c5)cnc4N)cc3)cc2)CC1 [US10125118, Example 172]",7.9

# Continued by falling IC50, values first:
row,IC50 [nM],SMILES
1,1580,Cc1nc(-c2c(C)nn(C)c2C)ccc1-c1nnc(N(C)Cc2ccc3nccn3c2)o1
2,501,COc1cc(-c2c(C)nn(C)c2C)ccc1-c1nnc(N(C)Cc2ccc3nccn3c2)o1
3,316,Cc1nn(C)c(C)c1-c1ccc(-c2nnc(N(C)Cc3ccc4nccn4c3)o2)c(F)c1
4,316,Cc1cc(-c2c(C#N)nn(C)c2C)ccc1-c1nnc(N(C)Cc2ccc3nccn3c2)o1
5,251,Cc1cc(-c2c(C)nn(C)c2C)ccc1-c1nnc(N(C)Cc2ccc3ncc(C4CCN(C)CC4)n3c2)o1
6,100,Cc1cc(-c2c(C)nn(C)c2C)cnc1-c1nnc(N(C)Cc2ccc3ncc(-c4ccc(CN(C)C)nc4)n3c2)o1
7,32,Cc1cc(-c2c(C)nn(C)c2C)ccc1-c1nnc(N(C)Cc2ccc3ncc(C(=O)N(C)C)n3c2)o1
8,16,Cc1cc(-c2c(C)nn(C)c2C)cnc1-c1nnc(N(C)Cc2ccc3ncc(-c4ccc(CN(C)C)cc4)n3c2)o1
